The values that follow come from patent US9828339B2, “Biphenyl derivatives and methods for preparing same” (DONG-A ST CO., LTD, priority 2013, dated 2017).

pKi: −log10 of the molar value.

The target in test [1] is T1, human muscarinic M3 receptor (Homo sapiens (Human), UniProt P20309). Nature of the test: Antagonism assay on human muscarinic M3 receptor (carbachol-induced intracellular calcium, FLIPR Calcium 5, transfected Cos-7 cells). It counts as cell-based. The following applies: functional inhibitory constant; carbachol-induced intracellular calcium in Cos-7 cells transfected with human M3 receptor. The procedure, abridged: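 Ki values converted by Cheng-Prusoff from IC50 against carbachol-evoked calcium rise, measured with FLIPR Calcium 5 in human M3-transfected Cos-7 cells. Compounds added 3 min before carbachol; signal scaled 0% before, 100% after agonist.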
(In general: Calcium assays in cells follow changes in intracellular calcium, usually with a dye or a luminescent sensor.)

In test [2] the test system is rhythmic bladder contractions. In words: Rhythmic bladder contractions in rats (in vivo). Set-up: species or system rat. The following applies: 0.3 mpk, intravenous, female Sprague-Dawley rats; amplitude reduction of bladder contractions. The text has this: [Experimental Example 3] Experiment on Rhythmic Bladder Contractions in Rats (In Vivo)
Female Sprague-Dawley rat was halothane-anesthetized, and a polyethylene catheter was inserted through urethra lay down straight and fixed. Urine in bladder was excreted through the catheter by gently massaging abdomen of the rat, and then removed. A three-way stopcock was connected to the catheter and a pressure transducer was connected to one side of the three-way stopcock to measure pressure, and a syringe was installed at the other side to inject 37° C. of saline solution. The saline solution was slowly injected until regular bladder contractions occurred repeatedly. When regular bladder contractions occurred stably, test compounds were administered intravenously through the tail vein. Inhibitory effect of the test compounds was evaluated by measuring degree of amplitude reduction of bladder contractions.

The target of test [3] is T1, human muscarinic M3 receptor. In words: Binding assay on human muscarinic M3 receptor ([3H]-methyl scopolamine displacement). The following applies: membranes overexpressing human M3 receptor, Ki from IC50 by Cheng-Prusoff, read-out: Binding Affinity to M3 Receptor, Ki. Summed up:
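Displacement of [3H]-methyl scopolamine from membranes overexpressing human M3, in Tris-HCl, 25 °C, 120 min; filter-bound radioactivity counted. Nonspecific binding with 5 μM atropine; Ki from IC50 via Cheng-Prusoff.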

T1 sequence (P20309 whole entry): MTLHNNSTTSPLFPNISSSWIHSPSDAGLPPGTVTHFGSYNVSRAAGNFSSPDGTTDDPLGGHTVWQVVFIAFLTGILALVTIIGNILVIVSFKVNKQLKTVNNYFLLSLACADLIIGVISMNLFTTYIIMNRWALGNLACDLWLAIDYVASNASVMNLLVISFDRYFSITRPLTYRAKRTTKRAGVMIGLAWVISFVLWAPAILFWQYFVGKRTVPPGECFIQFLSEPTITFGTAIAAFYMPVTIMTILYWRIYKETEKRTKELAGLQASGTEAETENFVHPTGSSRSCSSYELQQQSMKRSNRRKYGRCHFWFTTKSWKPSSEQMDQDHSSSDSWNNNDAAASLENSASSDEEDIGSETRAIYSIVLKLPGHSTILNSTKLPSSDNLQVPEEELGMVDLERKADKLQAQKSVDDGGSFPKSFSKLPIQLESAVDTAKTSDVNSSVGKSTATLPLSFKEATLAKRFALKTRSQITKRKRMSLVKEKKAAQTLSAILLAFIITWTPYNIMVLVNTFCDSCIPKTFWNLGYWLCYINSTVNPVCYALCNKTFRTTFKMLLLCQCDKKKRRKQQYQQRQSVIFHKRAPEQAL

As a reminder, the pKi is the negative decadic logarithm of the Ki, by convention in mol/L. For the molecule `CN1CCCC1CCOC(=O)Nc1ccccc1-c1cc(F)cc(F)c1` (centres unmarked) [Example 2, 2-(1-methylpyrrolidin-2-yl)ethyl(3′,5′-difluoro-[1,1′-biphenyl]-2-yl)carbamate], the pKi in test [1] is 8.22; in test [3], 8.06. Also, the “Inhibition of Rhythmic bladder contraction in rats” value (from here on “Inhibition”) in test [2] stood at 20.1 ± 3.1%.
The like results for `CN1CCCC1CCOC(=O)Nc1ccccc1-c1cccc(F)c1` (centres unmarked) [Example 4, 2-(1-methylpyrrolidin-2-yl)ethyl(3′-fluoro-[1,1′-biphenyl]-2-yl)carbamate] were, in that order, 8.47, 8.53 and 22.3 ± 4.9%.
The like results for `CN1CCCC1CCOC(=O)Nc1ccccc1-c1cccc(Cl)c1` (centres unmarked) [Example 8, 2-(1-methylpyrrolidin-2-yl)ethyl(3′-chloro-[1,1′-biphenyl]-2-yl)carbamate] were, in that order, 8.52, 8.88 and 23.2 ± 2.3%.
The like results for `CN1CCCC1CCOC(=O)Nc1ccc(F)cc1-c1ccc(F)cc1` (centres unmarked) [Example 19, 2-(1-methylpyrrolidin-2-yl)ethyl(4′,5-difluoro-[1,1′-biphenyl]-2-yl)carbamate] were, in that order, 8.72, 8.38 and 12.8 ± 3.0%.
Take `Cc1cccc(-c2cc(F)ccc2NC(=O)OCCC2CCCN2C)c1` (centres unmarked) [Example 22, 2-(1-methylpyrrolidin-2-yl)ethyl(5-fluoro-3′-methyl-[1,1′-biphenyl]-2-yl)carbamate]: the figures for the pKi in test [1] and in test [3] were 8.62 and 8.42, respectively. For the same molecule, the “Inhibition” value in test [2] was 16.7 ± 1.7%.
`CN1CCCC1CCOC(=O)Nc1ccccc1-c1ccccc1F` (centres unmarked) [Example 34, 2-(1-methylpyrrolidin-2-yl)ethyl(2′-fluoro-[1,1′-biphenyl]-2-yl)carbamate]: the figures for the pKi in test [1] and in test [3] were 8.58 and 7.71, respectively. Besides, in test [2], the “Inhibition” value stood at 20.1 ± 1.8%.
The like results for `CN1CCCC1CCOC(=O)Nc1ccc(F)cc1-c1cc(F)cc(Cl)c1` (centres unmarked) [Example 52, 2-(1-methylpyrrolidin-2-yl)ethyl (3′-chloro-5,5′-difluoro-[1,1′-biphenyl]-2-yl)carbamate] were, in that order, 8.91, 8.00 and 10.8 ± 0.8%.
As for `Cc1ccc(-c2cc(F)ccc2NC(=O)OCCC2CCCN2C)cc1C` (centres unmarked) [Example 59, 2-(1-methylpyrrolidin-2-yl)ethyl(5-fluoro-3′,4′-dimethyl-[1,1′-biphenyl]-2-yl)carbamate], the pKi in test [1] was 8.62; in test [3], 8.19. In test [2], the “Inhibition” value is reported as 11.6 ± 1.9%.
For `CN1CCCC1CCOC(=O)Nc1ccc(Cl)cc1-c1ccccc1` (centres unmarked) [Example 66, 2-(1-Methylpyrrolidin-2-yl)ethyl (5-chloro-[1,1′-biphenyl]-2-yl)carbamate] the same measures were 8.51, 8.16 and 12.0 ± 1.4%.
The like results for `CN1CCCC1CCOC(=O)Nc1ccc(Cl)cc1-c1cccc(Cl)c1` (centres unmarked) [Example 70, 2-(1-Methylpyrrolidin-2-yl)ethyl(3′,5-dichloro-[1,1′-biphenyl]-2-yl)carbamate] were, in that order, 8.71, 8.09 and 9.7 ± 4.1%.
For `CN1CCCC1CCOC(=O)Nc1ccc(Cl)cc1-c1ccc(F)c(Cl)c1` (centres unmarked) [Example 73, 2-(1-Methylpyrrolidin-2-yl)ethyl(3′,5-dichloro-4′-fluoro-[1,1′-biphenyl]-2-yl)carbamate] the same measures were 8.32, 8.32 and 10.0 ± 1.0%.
Regarding `CN1CC[C@@H](COC(=O)Nc2ccc(F)cc2-c2cc(F)cc(F)c2)C1` [Example 95, (R)-(1-methylpyrrolidin-3-yl)methyl (3′,5,5′-trifluoro-[1,1′-biphenyl]-2-yl)carbamate], the pKi in test [1] is 9.12; in test [3] it was 8.20. In test [2], the “Inhibition” value was 15.7 ± 0.8%.
The like results for `CN1CC[C@@H](COC(=O)Nc2ccccc2-c2cccc(Cl)c2)C1` [Example 117, (R)-(1-methylpyrrolidin-3-yl)methyl(3′-chloro-[1,1′-biphenyl]-2-yl)carbamate] were, in that order, 9.47, 8.80 and 15.4 ± 0.1%.
For `CN1CC[C@H](COC(=O)Nc2ccc(F)cc2-c2ccc(F)cc2)C1` [Example 124, (S)-(1-methylpyrrolidin-3-yl)methyl(4′,5-difluoro-[1,1′-biphenyl]-2-yl)carbamate] the same measures were 8.54, 8.09 and 21.2 ± 0.7%.
For `CN1CC[C@H](COC(=O)Nc2ccc(F)cc2-c2ccc(Cl)c(Cl)c2)C1` [Example 128, (S)-(1-methylpyrrolidin-3-yl)methyl(3′,4′-dichloro-5-fluoro-[1,1′-biphenyl]-2-yl)carbamate] the same measures were 8.92, 8.47 and 15.1 ± 3.4%.
Regarding `CN1CC[C@H](COC(=O)Nc2ccc(F)cc2-c2cc(F)cc(Cl)c2)C1` [Example 129, (S)-(1-methylpyrrolidin-3-yl)methyl(3′-chloro-5,5′-difluoro-[1,1′-biphenyl]-2-yl)carbamate], the pKi in test [1] was 8.20; in test [3], 7.90. For the same molecule, the “Inhibition” value in test [2] is recorded as 15.7 ± 1.4%.
The like results for `CN1CC[C@@H](COC(=O)Nc2ccccc2-c2cc(Cl)cc(Cl)c2)C1` [Example 131, (R)-(1-methylpyrrolidin-3-yl)methyl(3′,5′-dichloro-[1,1′-biphenyl]-2-yl)carbamate] were, in that order, 8.73, 7.92 and 17.8 ± 2.5%.
As to `CN1CC[C@@H](COC(=O)Nc2ccc(F)cc2-c2cc(F)cc(Cl)c2)C1` [Example 142, (R)-(1-methylpyrrolidin-3-yl)methyl(3′-chloro-5,5′-difluoro-[1,1′-biphenyl]-2-yl)carbamate], the values for the pKi in test [1] and in test [3] were 8.98 and 8.31, respectively. Moreover, the “Inhibition” value in test [2] worked out at 15.1 ± 3.4%.
For `CN1CC[C@@H](COC(=O)Nc2ccc(Cl)cc2-c2cccc(Cl)c2)C1` [Example 145, (R)-(1-methylpyrrolidin-3-yl)methyl(3′,5-dichloro-[1,1′-biphenyl]-2-yl)carbamate] the same measures were 8.53, 7.85 and 13.1 ± 3.0%.
The like results for `CN1CC[C@@H](COC(=O)Nc2ccc(Cl)cc2-c2ccc(F)c(Cl)c2)C1` [Example 146, (R)-(1-methylpyrrolidin-3-yl)methyl(3′,5-dichloro-4′-fluoro-[1,1′-biphenyl]-2-yl)carbamate] were, in that order, 8.80, 8.16 and 8.2 ± 2.9%.
For the molecule `CN1CCC[C@H]1COC(=O)Nc1ccccc1-c1ccccc1` [Example 197, (S)-(1-methylpyrrolidin-2-yl)-methyl [1,1′-biphenyl]-2-ylcarbamate], the “Inhibition” value in test [2] was determined as 32.8 ± 9.7%. The pKi in test [3] is 9.11.
For `CN1CCC[C@H]1COC(=O)Nc1ccccc1-c1ccc(F)cc1` [Example 198, (S)-(1-methylpyrrolidin-2-yl)methyl(4′-fluoro-[1,1′-biphenyl]-2-yl)carbamate] the same measures were 26.3 ± 2.4% and 8.73.
For `Cc1cccc(-c2cc(F)ccc2NC(=O)OC[C@@H]2CCCN2C)c1` [Example 201, (S)-(1-methylpyrrolidin-2-yl)methyl (5-fluoro-3′-methyl-[1,1′-biphenyl]-2-yl)carbamate] the same measures were 9.1 ± 3.0% and 8.57.
The like results for `CN1CCC[C@H]1COC(=O)Nc1ccc(F)cc1-c1cccc(F)c1` [Example 202, (S)-(1-methylpyrrolidin-2-yl)methyl (3′,5-difluoro-[1,1′-biphenyl]-2-yl)carbamate] were, in that order, 17.3 ± 1.3% and 8.66.
For the molecule `CN1CCC[C@H]1COC(=O)Nc1ccc(F)cc1-c1ccc(F)cc1` [Example 203, (S)-(1-methylpyrrolidin-2-yl)methyl (4′,5-difluoro-[1,1′-biphenyl]-2-yl)carbamate], the “Inhibition” value in test [2] stood at 19.4 ± 4.0%. In test [3], the pKi was 8.63.
For the molecule `CN1CCC[C@H]1COC(=O)Nc1cc(F)ccc1-c1ccccc1` [Example 204, (S)-(1-methylpyrrolidin-2-yl)methyl (4-fluoro-[1,1′-biphenyl]-2-yl)carbamate], the “Inhibition” value in test [2] is given as 23.3 ± 6.6%. For the same molecule, the pKi in test [3] was 8.45.
For `CN1CCC[C@H]1COC(=O)Nc1cc(F)ccc1-c1cccc(F)c1` [Example 205, (S)-(1-methylpyrrolidin-2-yl)methyl(3′,4-difluoro-[1,1′-biphenyl]-2-yl)carbamate] the same measures were 11.9 ± 3.7% and 8.10.
